Results: US9073895B2 (Boehringer Ingelheim International GmbH, priority 2010, dated 2015)
pIC50: −log10 of the molar value.

How the values were obtained:
[1] = target: T1, recombinant human FLAP protein (Homo sapiens, UniProt P20292); test: FLAP binding assay (SPA, displacement of [125I]L-691,831); settings: membranes of sf9 cells expressing human FLAP, [125I]L-691,831 probe; read-out: hFLAP binding IC50
T1 construct: made in house; host or cells: Sf9 insect cells (membrane fraction, 100,000 x g pellet)
T1 sequence (P20292 1-161): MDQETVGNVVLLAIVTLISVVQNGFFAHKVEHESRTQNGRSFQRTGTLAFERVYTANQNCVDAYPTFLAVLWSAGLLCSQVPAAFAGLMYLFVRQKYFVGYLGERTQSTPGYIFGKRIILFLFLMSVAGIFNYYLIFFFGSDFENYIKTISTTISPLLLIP
Description: Compounds are assessed for the ability to bind to FLAP in a binding assay that measures compound-specific displacement of an iodinated (^125I) FLAP inhibitor via a Scintillation Proximity Assay format (adapted from S. Charleson et al., Mol. Pharmacol., 1992, 41, 873-879).
Cell pellets produced from sf9 insect cells expressing recombinant human FLAP protein are resuspended in buffer A [15 mM Tris-HCl (pH 7.5), 2 mM MgCl2, 0.3 mM EDTA, 1 mM PMSF]. The cells are lysed with a Dounce homogenizer and the material is centrifuged at 10,000×g for 10 minutes. The supernatant is then collected and centrifuged at 100,000×g for 60 minutes. To prepare membrane protein for an assay, an aliquot of the 100,000×g pellet is resuspended in 1 ml of buffer A, Dounce homogenized, and finally subjected to polytron mixing (30 seconds). Membrane protein (25 μl, 5 μg) is mixed with WGA SPA beads (Amersham) and stirred for 1 h. To an assay plate (Perkin Elmer FlexiPlate) is added 25 μl of test compound prepared in Binding buffer [100 mM Tris (pH 7.5), 140 mM NaCl, 5% glycerol, 2 mM EDTA, 0.5 mM TCEP, 0.05% Tween 20], 25 μl of [^125I]L-691,831 (an iodinated analog of MK-591, Charleson et al. Mol. Pharmacol., 41, 873-879, 1992) and finally 50 μl of the bead/protein mixture. (final concentrations: beads, 200 μg/well; protein, 5μg/well; [^125I] probe, 0 08 nM/well(17 nCi/well). The plates are shaken for 2 h before reading on a Microbeta plate reader. Non-specific binding is determined by the addition of 10 μM cold L-691,831 compound.

[2] = test system: synthesis of LTB4 in human whole blood; test: Human whole blood LTB4 production inhibition assay; assay type: cell-based; settings: heparinized human whole blood, calcimycin 20 μM, plasma LTB4; read-out: HuWB IC50
Description: Compounds are additionally tested in a human whole blood assay to determine their ability to inhibit the synthesis of LTB4 in a cellular system. Compounds are combined with heparinized human whole blood and incubated for 15 minutes at 37° C. Calcimycin (20 μM final, prepared in phosphate-buffered saline, pH 7.4) is then added and the mixture is incubated for another 30 minutes at 37° C. The samples are centrifuged for 5 min at low speed (1500×g) and the plasma layer is removed. Plasma LTB4 concentrations are then measured using an antibody-based homogenous time-resolved fluorescence method (CisBio, Bedford, Mass.).

| SMILES | pIC50 [1] | pIC50 [2] |
| --- | --- | --- |
| Nc1ncc(-c2ccc(C3(C(=O)Nc4ccc(-c5ccccc5)cc4)CCOCC3)cc2)cn1 [Example 16, 4-[4-(2-aminopyrimidin-5-yl)phenyl]-N-(biphenyl-4-yl)tetrahydro-2H-pyran-4-carboxamide] | 7.97 | 6.20 |
| Nc1ncc(-c2ccc(C3(C(=O)Nc4ccc5ncsc5c4)CCOCC3)cc2)cn1 [Example 18, 4-[4-(2-aminopyrimidin-5-yl)phenyl]-N-(1,3-benzothiazol-6-yl)tetrahydro-2H-pyran-4-carboxamide] | 7.80 | 5.77 |
| Nc1ncc(-c2ccc(C3(C(=O)Nc4nc(-c5ccccc5)cs4)CCOCC3)cc2)cn1 [Example 20, 4-[4-(2-aminopyrimidin-5-yl)phenyl]-N-(4-phenyl-1,3-thiazol-2-yl)tetrahydro-2H-pyran-4-carboxamide] | 7.80 | 5.87 |
| Nc1ncc(-c2ccc(C3(C(=O)Nc4cccc(OC(F)(F)F)c4)CCOCC3)cc2)cn1 [Example 21] | 7.92 | < 5.52 |
| Nc1ncc(-c2ccc(C3(C(=O)Nc4cccc(Oc5ccccc5)c4)CCOCC3)cc2)cn1 [Example 22, 4-[4-(2-aminopyrimidin-5-yl)phenyl]-N-(3-phenoxyphenyl)tetrahydro-2H-pyran-4-carboxamide] | 7.22 | < 5.52 |
| Nc1ncc(-c2ccc(C3(C(=O)Nc4ccc(C(F)(F)F)cn4)CCOCC3)cc2)cn1 [Example 23, 4-[4-(2-aminopyrimidin-5-yl)phenyl]-N-[5-(trifluoromethyl)pyridin-2-yl]tetrahydro-2H-pyran-4-carboxamide] | 7.22 | < 5.52 |
| Nc1ncc(-c2ccc(C3(C(=O)Nc4cccc(-c5ccccc5)c4)CCOCC3)cc2)cn1 [Example 24, 4-[4-(2-aminopyrimidin-5-yl)phenyl]-N-(biphenyl-3-yl)tetrahydro-2H-pyran-4-carboxamide] | 7.02 | < 5.52 |
| Nc1ncc(-c2ccc(C3(C(=O)Nc4ccc(-c5csnn5)cc4)CCOCC3)cc2)cn1 [Example 25, 4-[4-(2-aminopyrimidin-5-yl)phenyl]-N-[4-(1,2,3-thiadiazol-4-yl)phenyl]tetrahydro-2H-pyran-4-carboxamide] | 8.06 | 6.30 |
| Nc1ncc(-c2ccc(C3(C(=O)Nc4cccc(-c5cnco5)c4)CCOCC3)cc2)cn1 [Example 26, 4-[4-(2-aminopyrimidin-5-yl)phenyl]-N-[3-(1,3-oxazol-5-yl)phenyl]tetrahydro-2H-pyran-4-carboxamide] | 7.59 | < 5.52 |
| Nc1ncc(-c2ccc(C3(C(=O)Nc4ccc(-c5cnco5)cc4)CCOCC3)cc2)cn1 [Example 27, 4-[4-(2-aminopyrimidin-5-yl)phenyl]-N-[4-(1,3-oxazol-5-yl)phenyl]tetrahydro-2H-pyran-4-carboxamide] | 8.26 | 6.68 |
| COC(=O)c1sc(-c2ccccc2)cc1NC(=O)C1(c2ccc(-c3cnc(N)nc3)cc2)CCOCC1 [Example 30, methyl 3-[({4-[4-(2-aminopyrimidin-5-yl)phenyl]tetrahydro-2H-pyran-4-yl}carbonyl)amino]-5-phenylthiophene-2-carboxylate] | 7.74 | 5.65 |
| N#Cc1ccc(NC(=O)C2(c3ccc(-c4cnc(N)nc4)cc3)CCOCC2)nc1 [Example 32, 4-[4-(2-aminopyrimidin-5-yl)phenyl]-N-(5-cyanopyridin-2-yl)tetrahydro-2H-pyran-4-carboxamide] | 7.33 | 5.95 |
| Nc1ncc(-c2ccc(C3(C(=O)Nc4cccc(-c5ccncc5)c4)CCOCC3)cc2)cn1 [Example 33, 4-[4-(2-aminopyrimidin-5-yl)phenyl]-N-[3-(pyridin-4-yl)phenyl]tetrahydro-2H-pyran-4-carboxamide] | 7.37 | < 5.52 |
| Nc1ncc(-c2ccc(C3(C(=O)Nc4ccc(-c5ccncc5)cc4)CCOCC3)cc2)cn1 [Example 34, 4-[4-(2-aminopyrimidin-5-yl)phenyl]-N-[4-(pyridin-4-yl)phenyl]tetrahydro-2H-pyran-4-carboxamide] | 7.93 | 6.79 |
| Nc1ncc(-c2ccc(C3(C(=O)Nc4nc(-c5ccccc5)ns4)CCOCC3)cc2)cn1 [Example 36, 4-[4-(2-aminopyrimidin-5-yl)phenyl]-N-(3-phenyl-1,2,4-thiadiazol-5-yl)tetrahydro-2H-pyran-4-carboxamide] | 7.88 | < 5.52 |
| Nc1ncc(-c2ccc(C3(C(=O)Nc4cc(-c5ccccc5)no4)CCOCC3)cc2)cn1 [Example 37, 4-[4-(2-aminopyrimidin-5-yl)phenyl]-N-(3-phenyl-1,2-oxazol-5-yl)tetrahydro-2H-pyran-4-carboxamide] | 7.46 | < 5.52 |
| Cc1cc(C)c2ccc(NC(=O)C3(c4ccc(-c5cnc(N)nc5)cc4)CCOCC3)nc2n1 [Example 38, 4-[4-(2-aminopyrimidin-5-yl)phenyl]-N-(5,7-dimethyl-1,8-naphthyridin-2-yl)tetrahydro-2H-pyran-4-carboxamide] | 7.23 | < 5.52 |
| Nc1ncc(-c2ccc(C3(C(=O)Nc4ccc(OC(F)(F)F)cc4)CCOCC3)cc2)cn1 [Example 39, 4-[4-(2-aminopyrimidin-5-yl)phenyl]-N-[4-(trifluoromethoxy)phenyl] tetrahydro-2H-pyran-4-carboxamide] | 7.26 | 5.72 |
| N#Cc1ccc(NC(=O)C2(c3ccc(-c4cnc(N)nc4)cc3)CCOCC2)cc1C(F)(F)F [Example 40, 4-[4-(2-aminopyrimidin-5-yl)phenyl]-N-[4-cyano-3-(trifluoromethyl)phenyl] tetrahydro-2H-pyran-4-carboxamide] | 7.54 | 5.91 |
| Nc1ncc(-c2ccc(C3(C(=O)Nc4ccc(C(F)(F)F)cc4)CCOCC3)cc2)cn1 [Example 41, 4-[4-(2-aminopyrimidin-5-yl)phenyl]-N-[4-(trifluoromethyl)phenyl] tetrahydro-2H-pyran-4-carboxamide] | 6.92 | < 5.52 |
| CCOC(=O)c1sc2ccc(NC(=O)C3(c4ccc(-c5cnc(N)nc5)cc4)CCOCC3)cc2c1C [Example 43, ethyl 5-[({4-[4-(2-aminopyrimidin-5-yl)phenyl]tetrahydro-2H-pyran-4-yl}carbonyl)amino]-3-methyl-1-benzothiophene-2-carboxylate] | 7.91 | < 5.52 |
| Nc1ncc(-c2ccc(C3(C(=O)Nc4ccc(-c5cccnc5)cc4)CCOCC3)cc2)cn1 [Example 45, 4-[4-(2-aminopyrimidin-5-yl)phenyl]-N-[4-(pyridin-3-yl)phenyl]tetrahydro-2H-pyran-4-carboxamide] | 8.21 | 6.34 |
| Cc1cc(NC(=O)C2(c3ccc(-c4cnc(N)nc4)cc3)CCOCC2)cc(C(F)(F)F)c1 [Example 46, 4-[4-(2-aminopyrimidin-5-yl)phenyl]-N-[3-methyl-5-(trifluoromethyl)phenyl] tetrahydro-2H-pyran-4-carboxamide] | 6.74 | < 5.52 |
| CC(C)(C)c1cc(NC(=O)C2(c3ccc(-c4cnc(N)nc4)cc3)CCOCC2)ccn1 [Example 47, 4-[4-(2-aminopyrimidin-5-yl)phenyl]-N-(2-tert-butylpyridin-4-yl)tetrahydro-2H-pyran-4-carboxamide] | 7.19 | 5.49 |
| Nc1ncc(-c2ccc(C3(C(=O)Nc4ccc(C(F)(F)F)nc4)CCOCC3)cc2)cn1 [Example 48, 4-[4-(2-aminopyrimidin-5-yl)phenyl]-N-[6-(trifluoromethyl)pyridin-3-yl]tetrahydro-2H-pyran-4-carboxamide] | 7.08 | 5.79 |
| Nc1ncc(-c2ccc(C3(C(=O)Nc4ccc(OCc5ccccc5)c(Cl)c4)CCOCC3)cc2)cn1 [Example 49, 4-[4-(2-aminopyrimidin-5-yl)phenyl]-N-[4-(benzyloxy)-3-chlorophenyl]tetrahydro-2H-pyran-4-carboxamide] | 7.57 | 6.27 |
| Nc1ncc(-c2ccc(C3(C(=O)Nc4ccc5cnccc5c4)CCOCC3)cc2)cn1 [Example 51, 4-[4-(2-aminopyrimidin-5-yl)phenyl]-N-(isoquinolin-6-yl)tetrahydro-2H-pyran-4-carboxamide] | 7.74 | 5.77 |
